These results are taken from patent US11149040B2, “Fused triazole agonists of the APJ receptor” (AMGEN INC., priority 2017, dated 2021).

A value given as a limit tells only on which side of the number the result lay.

Broadly, the EC50 is the midpoint of the concentration-response curve.

Chain of human APJ receptor (P35414 whole entry): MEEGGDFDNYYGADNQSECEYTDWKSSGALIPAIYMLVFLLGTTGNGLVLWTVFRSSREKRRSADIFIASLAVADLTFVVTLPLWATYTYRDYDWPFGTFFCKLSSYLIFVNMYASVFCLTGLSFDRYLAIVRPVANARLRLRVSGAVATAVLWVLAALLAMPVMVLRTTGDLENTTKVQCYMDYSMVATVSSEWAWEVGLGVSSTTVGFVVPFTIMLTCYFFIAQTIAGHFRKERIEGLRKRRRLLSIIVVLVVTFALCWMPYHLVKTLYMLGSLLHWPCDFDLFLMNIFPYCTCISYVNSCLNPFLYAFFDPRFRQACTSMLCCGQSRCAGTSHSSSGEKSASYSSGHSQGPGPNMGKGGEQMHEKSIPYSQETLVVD

The target of the first assay is human APJ receptor (Homo sapiens (Human), UniProt P35414). Put plainly: [35S]GTPγS binding assay on membranes from CHO cells stably expressing human APJ receptor. In kind it is biochemical. Conditions: read-out: Activity hAPJ SPA EC50 IP. An outline of the steps:
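Membranes from CHO cells stably expressing FLAG-tagged human APJ; assay buffer GDP, MgCl2 and NaCl levels optimised beforehand. Incubation 90 min at RT, imager read-out. EC50 from non-linear regression on means of several independent experiments.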
In general terms: GTPγS resists hydrolysis and so accumulates on activated G proteins.
With `COC[C@@H]1COc2cccnc2-c2nnc(NS(=O)(=O)[C@@H](C)[C@@H](OC(C)C)c3ncc(C)cn3)n21` (single isomer, unassigned) [Example 70.0, (1S,2S)-N-((5R)-5-(methoxymethyl)-5,6-dihydropyrido[2,3-f][1,2,4]triazolo[4,3-d][1,4]oxazepin-3-yl)-1-(5-methyl-2-pyrimidinyl)-1-(2-propanyloxy)-2-propanesulfonamide or (1S,2S)-N-((5S)-5-(methoxymethyl)-5,6-dihydropyrido[2,3-f][1,2,4]triazolo[4,3-d][1,4]oxazepin-3-yl)-1-(5-methyl-2-pyrimidinyl)-1-(2-propanyloxy)-2-propanesulfonamide], the EC50 turned out to be 1.21 µM.
On the same count and under the same terms, in the case of `COc1ccc2c(c1)-c1nnc(NS(=O)(=O)[C@@H](C)[C@@H](OC(C)C)c3ncc(C)cn3)n1C(CO)CO2` (single isomer, unassigned) [Example 150.0, (1S,2S)-N-((5R)-5-(hydroxymethyl)-10-methoxy-5,6-dihydro[1,2,4]triazolo[4,3-d][1,4]benzoxazepin-3-yl)-1-(5-methyl-2-pyrimidinyl)-1-(2-propanyloxy)-2-propanesulfonamide or (1S,2S)-N-((5S)-5-(hydroxymethyl)-10-methoxy-5,6-dihydro[1,2,4]triazolo[4,3-d][1,4]benzoxazepin-3-yl)-1-(5-methyl-2-pyrimidinyl)-1-(2-propanyloxy)-2-propanesulfonamide] it was 1.88 µM; in that of `COc1ccc2c(c1)-c1nnc(NS(=O)(=O)[C@@H](C)[C@@H](OC(C)C)c3ncc(C)cn3)n1C(CO)CO2` (single isomer, unassigned) [Example 151.0, (1S,2S)-N-((5R)-5-(hydroxymethyl)-10-methoxy-5,6-dihydro[1,2,4]triazolo[4,3-d][1,4]benzoxazepin-3-yl)-1-(5-methyl-2-pyrimidinyl)-1-(2-propanyloxy)-2-propanesulfonamide or (1S,2S)-N-((5S)-5-(hydroxymethyl)-10-methoxy-5,6-dihydro[1,2,4]triazolo[4,3-d][1,4]benzoxazepin-3-yl)-1-(5-methyl-2-pyrimidinyl)-1-(2-propanyloxy)-2-propanesulfonamide], 1.27 µM.
Take `COCC1COc2ccc(OC)cc2-c2nnc(NS(=O)(=O)[C@@H](C)[C@@H](OC(C)C)c3ncc(C)cn3)n21` (single isomer, unassigned) [Example 152.0, (1S,2S)-N-((5R)-10-methoxy-5-(methoxymethyl)-5,6-dihydro[1,2,4]triazolo[4,3-d][1,4]benzoxazepin-3-yl)-1-(5-methyl-2-pyrimidinyl)-1-(2-propanyloxy)-2-propanesulfonamide or (1S,2S)-N-((5S)-10-methoxy-5-(methoxymethyl)-5,6-dihydro[1,2,4]triazolo[4,3-d][1,4]benzoxazepin-3-yl)-1-(5-methyl-2-pyrimidinyl)-1-(2-propanyloxy)-2-propanesulfonamide]: the concentration giving a half-maximal response (EC50) turned out to be 0.037 µM.
On the same count and under the same terms, then `COCC1COc2ccc(OC)cc2-c2nnc(NS(=O)(=O)[C@@H](C)[C@@H](OC(C)C)c3ncc(C)cn3)n21` (single isomer, unassigned) [Example 153.0, (1S,2S)-N-((5R)-10-methoxy-5-(methoxymethyl)-5,6-dihydro[1,2,4]triazolo[4,3-d][1,4]benzoxazepin-3-yl)-1-(5-methyl-2-pyrimidinyl)-1-(2-propanyloxy)-2-propanesulfonamide or (1S,2S)-N-((5S)-10-methoxy-5-(methoxymethyl)-5,6-dihydro[1,2,4]triazolo[4,3-d][1,4]benzoxazepin-3-yl)-1-(5-methyl-2-pyrimidinyl)-1-(2-propanyloxy)-2-propanesulfonamide], with 0.25 µM; and `Cc1cnc([C@H](OC(C)C)[C@H](C)S(=O)(=O)Nc2nnc3n2[C@H](CO)OCc2ccc(C(F)(F)F)cc2-3)nc1` (single isomer, unassigned) [Example 156.0, (1S,2S)-N-((R)-5-(hydroxymethyl)-10-(trifluoromethyl)-5,6-dihydrobenzo[f][1,2,4]triazolo[4,3-d][1,4]oxazepin-3-yl)-1-isopropoxy-1-(5-methylpyrimidin-2-yl)propane-2-sulfonamide or (1S,2S)-N-((S)-5-(hydroxymethyl)-10-(trifluoromethyl)-5,6 dihydrobenzo[f][1,2,4]triazolo[4,3-d][1,4]oxazepin-3-yl)-1-isopropoxy-1-(5-methylpyrimidin-2-yl)propane-2-snlfonamide], with 2.11 µM.
Take `Cc1cnc([C@H](OC(C)C)[C@H](C)S(=O)(=O)Nc2nnc3n2C(CO)COc2ccc(C(F)(F)F)cc2-3)nc1` (single isomer, unassigned) [Example 157.0, (1S,2S)-N-((R)-5-(hydroxymethyl)-10-(trifluoromethyl)-5,6-dihydrobenzo[f][1,2,4]triazolo[4,3-d][1,4]oxazepin-3-yl)-1-isopropoxy-1-(5-methylpyrimidin-2-yl)propane-2-sulfonamide or (1S,2S)-N-((S)-5-(hydroxymethyl)-10-(trifluoromethyl)-5,6-dihydrobenzo[f][1,2,4]triazolo[4,3-d][1,4]oxazepin-3-yl)-1-isopropoxy-1-(5-methylpyrimidin-2-yl)propane-2-sulfonamide]: the EC50 was above 12.5 µM.
As for `COC[C@@H]1COc2ccc(OC)nc2-c2nnc(NS(=O)(=O)[C@@H](C)[C@H](C)c3ncc(OC)cn3)n21` (stereo in doubt) [Example 3.0, (2S,3R)-N-((5R)-10-methoxy-5-(methoxymethyl)-5,6-dihydropyrido[2,3-f][1,2,4]triazolo[4,3-d][1,4]oxazepin-3-yl)-3-(5-methoxy-2-pyrimidinyl)-2-butanesulfonamide and (2S,3R)-N-((5S)-10-methoxy-5-(methoxymethyl)-5,6-dihydropyrido[2,3-f][1,2,4]traizolo[4,3-d][1,4]oxazepin-3-yl)-3-(5-methoxy-2-pyrimidinyl)-2-butanesulfonamide], the EC50 was 0.49 µM.
Take `COC[C@@H]1COc2ccc(F)cc2-c2nnc(NS(=O)(=O)[C@@H](C)[C@H](OC)c3ncc(C)cn3)n21` (stereo in doubt) [Example 24.0, (1R,2S)-N-((5R)-10-fluoro-5-(methoxymethyl)-5,6-dihydro[1,2,4]traizolo[4,3-d][1,4]benzoxazepin-3-yl)-1-methoxy-1-(5-methyl-2-pyrimidinyl)-2-propanesulfonamide and (1R,2S)-N-((5S)-10-fluoro-5-(methoxymethyl)-5,6-dihydro[1,2,4]triazolo[4,3-d][1,4]benzoxazepin-3-yl)-1-methoxy-1-(5-methyl-2-pyrimidinyl)-2-propanesulfonamide]: the EC50 was 0.26 µM.
On to `COC[C@@H]1COc2cnccc2-c2nnc(NS(=O)(=O)[C@@H](C)[C@@H](OC(C)C)c3ncc(C)cn3)n21` (stereo in doubt) [Example 43.0, (1S,2S)-N-((5R)-5-(methoxymethyl)-5,6-dihydropyrido[4,3-f][1,2,4]triazolo[4,3-d][1,4]oxazepin-3-yl)-1-(5-methyl-2-pyrimidinyl)-1-(2-propanyloxy)-2-propanesulfonamide and (1S,2S)-N-((5S)-5-(methoxymethyl)-5,6-dihydropyrido[4,3-f][1,2,4]traizolo[4,3-d][1,4]oxazepin-3-yl)-1-(5-methyl-2-pyrimidinyl)-1-(2-propanyloxy)-2-propanesulfonamide], for which the concentration for a half-maximal effect (EC50) came out at 1.2 µM.
As for `C=C1COc2ccccc2-c2nnc(NS(=O)(=O)[C@@H](C)[C@@H](OC(C)C)c3ncc(C)cn3)n21` [Example 17.0, (1S,2S)-N-(5-Methylidene-5,6-dihydro[1,2,4]triazolo[4,3-d][1,4]benzoxazepin-3-yl)-1-(5-methyl-2-pyrimidinyl)-1-(2-propanyloxy)-2-propanesulfonamide], the EC50 turned out to be 1 µM.
Take `C=C1COc2ncccc2-c2nnc(NS(=O)(=O)[C@@H](C)[C@@H](OC(C)C)c3ncc(Cl)cn3)n21` [Example 60.0, (1S,2S)-1-(5-chloro-2-pyrimidinyl)-N-(5-methylidene-5,6-dihydropyrido[3,2-f][1,2,4]triazolo[4,3-d][1,4]oxazepin-3-yl)-1-(2-propanyloxy)-2-propanesulfonamide]: the EC50 came out at 0.85 µM.

The next assay has as its system heart failure rats. Put plainly: Cardiac contractility in vivo in heart failure rat model. Conditions: alone, acute settings. On the procedure:
Evidence for Improvement in Cardiac Contractility In Vivo in Heart Failure Rat Model Based on ex vivo findings in isolated heart assay, APJ agonists are dosed in vivo to investigate the translation of cardiac contractility in in vivo settings. Male Lewis rats (Charles River, USA) at 2-3 months of age are used for the study. Heart failure is induced by permanent ligation of the left descending coronary artery which results in injury to the heart with an ejection fraction of <35%. APJ agonists are administered dose dependently acutely for a period of 30 min. Administration of APJ agonists lead to an increase in cardiac contractility as measured by dP/dtmax (derivative of left ventricular pressure).
Regarding `C[C@H](CS)C(=O)N1CCC[C@H]1C(=O)O` [Captopril, captopril], the “improvement in contractility or ejection fraction” value is recorded as “does not show a marked improvement in contractility or ejection fraction acutely”.
